Results on 8 compounds are retold here after patent US20110077198A1, “COMPOSITIONS AND METHODS FOR INHIBITING THE ACTIVATION OF DSRNA-DEPENDENT PROTEIN KINASE AND TUMOR GROWTH INHIBITION” (priority 2007, published 2011).

The subject of series [1] is MAC16 cells. In words: Cell growth assay, MAC16 cells in vitro. The series is classed as cell-based, mouse.
The test system of series [2] is MAC13 cells. In words: Cell growth assay, MAC13 cells in vitro. The series is classed as cell-based, mouse. The conditions noted are these: concentration up to 1000 nM (FIG. 2). How it is done:
The MAC16 and MAC13 tumors were propagated in vitro in RPMI 1640 medium containing 10% FCS at 37° C., under an atmosphere of 5% CO2 in air. For cell growth assays, cells were seeded at either 0.5×10^5 cells per well (MAC13) or 1×10^5 cells per well (MAC16) in 24 well multi-well dishes and allowed to accumulate for 24 h prior to drug addition. Cell number was determined three days later, whilst the cells were in exponential growth.

The test system of series [3] is MAC16 tumor. The conditions noted are these: cited from earlier work; for tumor growth in mice bearing the MAC16 tumor: literature reports; for loss of body weight of mice bearing MAC-16 tumor: Eley et al., Biochem J. 2007.
Series [4] deals with eIF2α. In words: Western blot of phospho and total eIF2α in MAC16 tumor from treated mice. The series is classed as in vivo, mouse. The following applies: mice bearing MAC16 tumor. The text has this:
(§1) Both the MAC16 and MAC13 tumors were passaged in vivo in NMRI mice by transplanting fragments subcutaneously (s.c.) into the flank, as described in Bibby et al., J. Natl. Cancer Inst., 78(3):539-546, 1987. To maintain cachexia, the MAC16 tumor for passage was selected from donor animals with established weight loss, and treatment was initiated when the average weight loss was 5%. Animals were randomized into groups of six to receive solvent (DMSO (dimethylsulfoxide): PBS (phosphate-buffered saline); 1:20) or the PKR inhibitor at 1 and 5 mg/kg administered daily by s.c. injection. Animals were terminated by cervical dislocation when the body weight loss reached 20%. All animal experiments followed a strict protocol approved by the British Home Office, and the ethical guidelines that were followed meet the standards required by the UKCCR guidelines (Workman, P. et al., Br. J. Cancer, 77:1-10, 1998).
(§2) Samples (approximately 10 mg) of tumor were homogenised in 500 μl of PhosphoSafe™ Extraction Reagent and centrifuged at 15,000 g for 15 min at 4° C. Portions of cytosolic protein (10 μg) were resolved on 10% sodium dodecyl sulphate/polyacrylamide gels (SDS/PAGE; 6% for eIF2α). […] Blots were scanned by a densitometer to quantify differences.
In general terms: In western blotting, separated proteins are transferred to a membrane and probed.

Series [5] in a line: Toxicity in mice treated with the PKR inhibitor. It counts as in vivo, mouse. The conditions noted are these: inhibition of autophosphorylation of PKR in mice.
Source text: as §1

The test system of series [6] is 20S proteasome. In words: Western blot of 20S proteasome α-subunits in MAC16 cells. The conditions noted are these: MAC16 cells (FIG. 5C). The series is classed as cell-based, mouse. How it is done:
(§3) Samples (approximately 10 mg) of tumor were homogenised in 500 μl of PhosphoSafe™ Extraction Reagent and centrifuged at 15,000 g for 15 min at 4° C. Portions of cytosolic protein (10 μg) were resolved on 10% sodium dodecyl sulphate/polyacrylamide gels (SDS/PAGE; 6% for eIF2α). The resolved proteins were transferred onto 0.45 μm nitrocellulose membranes, which had been blocked with 5% Marvel in Tris-buffered saline, pH 7.5, at 4° C. overnight. Membranes were then washed for 15 min in 0.5% Tween-buffered saline, or TBS-Tween, prior to the addition of primary antibodies. The primary antibodies were used at a dilution of 1:1000, except for phospho eIF2α, which was used at 1:500. The primary antibodies were washed off the membranes for 15 min, with buffer changes every 5 min, using 0.1% TBS-Tween. The secondary antibodies were used at a dilution of 1:1000, and were washed off after 45 min. Development was by ECL, and films were developed for 3-6 min. Blots were scanned by a densitometer to quantify differences.

For series [7], the target named is T1, PKR (Mus musculus, UniProt Q03963).
T1 construct: endogenous in cells; host or cells: MAC16 and MAC13 murine colon adenocarcinoma cells in culture
T1 sequence (Q03963 1-515): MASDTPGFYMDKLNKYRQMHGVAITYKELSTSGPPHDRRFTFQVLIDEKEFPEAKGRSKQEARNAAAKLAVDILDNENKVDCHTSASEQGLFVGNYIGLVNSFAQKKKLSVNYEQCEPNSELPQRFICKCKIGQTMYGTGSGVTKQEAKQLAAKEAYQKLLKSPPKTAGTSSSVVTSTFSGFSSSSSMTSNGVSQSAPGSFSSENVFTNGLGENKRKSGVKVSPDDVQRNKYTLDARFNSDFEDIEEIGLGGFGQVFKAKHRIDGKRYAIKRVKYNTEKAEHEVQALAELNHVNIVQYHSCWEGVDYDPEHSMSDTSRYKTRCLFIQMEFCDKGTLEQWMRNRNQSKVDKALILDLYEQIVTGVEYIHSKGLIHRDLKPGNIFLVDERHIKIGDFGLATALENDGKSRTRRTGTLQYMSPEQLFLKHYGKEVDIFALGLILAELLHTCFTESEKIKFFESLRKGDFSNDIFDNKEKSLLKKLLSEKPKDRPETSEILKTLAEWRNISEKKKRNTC
In words: Western blot of phospho and total PKR in MAC16 tumor from treated mice. It counts as in vivo. The following applies: mice bearing MAC16 tumor.
Source text: as §1, §2

In series [8] the target is T1, PKR. In words: Western blot of phospho and total PKR in MAC13 cells. It counts as cell-based. On the procedure: as §3
Series [9] concerns the target T1, PKR. In words: Western blot of phospho and total PKR in MAC16 cells. It counts as cell-based. On the procedure: as §3
Series [10] relates to NF-κB. In words: EMSA of nuclear NF-κB in MAC16 tumor from treated mice. The following applies: mice bearing MAC16 tumor, 5 mg/kg for 4 days (FIG. 7B). It counts as in vivo, mouse.
Source text: as §1
DNA-binding proteins were isolated from tumor samples by hypotonic lysis, followed by high salt extraction of nuclei according to the method of Andrews and Faller (Nucleic Acids Res., 19(9):2499, 1991). EMSA was carried out using a Panomics EMSA “gel shift” kit, according to the manufacturer's instructions
(Mobility shift assays separate free from complexed probe on a gel.)

Series [11] deals with human pancreatic cancer cells. The conditions noted are these: in vitro, literature reports; cited from earlier work.

Take `O=c1[nH]cc(F)c(=O)[nH]1` [5FU, 5-fluorouracil]: the “growth of MAC16 cells, agent alone” value in series [1] (5FU alone at concentrations between 1 and 10 μM (FIG. 8)) was “significant inhibition”.
For `O=C1Nc2ccc3ncsc3c2/C1=C/c1c[nH]cn1` [PKR inhibitor, 8-[1-(1H-imidazol-4-yl)meth-(Z)-ylidene]-6,8-dihydro-thiazol[5,4-e]indol-7-one], in series [2], the “effect on growth of the MAC13 tumor in vitro” value is reported as “no effect”. Moreover, in [3] (Eley et al, 2007), the “muscle atrophy in mice bearing the MAC16 tumor” value is reported as “attenuated”. The “tumor growth in mice bearing the MAC16 tumor” value in series [3] was “inhibited”. Moreover, in series [4] (1 or 5 mg/kg daily s.c.), the “total level of eIF2α in MAC16 tumor” value is recorded as “without an effect”. Moreover, in [4] (1 or 5 mg/kg daily s.c. (FIG. 4B)), the “increased phosphorylation of eIF2α in MAC16 tumor” value was “complete attenuation”. For the same compound, the “concentration of maximum inhibition of cell growth” value in [1] (MAC16 in vitro, cell number after three days, higher concentrations less effective (FIG. 2)) is reported as 200 nM. Further, in [1] (PKR inhibitor at 100 or 200 nM combined with 5FU 1-10 μM (FIG. 8)), the “effect on 5FU-induced inhibition of growth of MAC16 cells” value is “significantly potentiated”. For the same compound, in series [1] (PKR inhibitor at 100 or 200 nM combined with gemcitabine (FIG. 8)), the “effect on gemcitabine-induced inhibition of growth of MAC16 cells” value is “potentiated”. In addition, the toxicity in mice entry in series [5] is “did not produce toxicity”. The “expression of the 20S proteasome” value in [6] is reported as “attenuated”. Moreover, the “total level of PKR in MAC16 tumor” value in [7] (1 or 5 mg/kg daily s.c.) is on record as “without an effect”. Besides, the “increased phosphorylation of PKR in MAC16 tumor” value in series [7] (1 or 5 mg/kg daily s.c. (FIG. 4A)) was “complete attenuation”. Moreover, the “effect on total PKR in the cell” value in [8] and in series [9] (MAC16 cells) was “In neither cell line was there an effect” each time. In series [8] (low levels of autophosphorylation (FIG. 5B)), the “effect on autophosphorylation of PKR” value is recorded as “no effect”. The “concentration maximally effective in inhibiting PKR” value in series [9] (increasing concentrations have a reduced inhibitory effect) came to 200 nM. Besides, in [10], the “constitutive activation of NF-κB in the tumor” value is on record as “attenuated”.
Consider `CC(C)C[C@H](NC(=O)[C@H](Cc1ccccc1)NC(=O)c1cnccn1)B(O)O` [PS-341], for which the “growth / proliferation of human pancreatic cancer cells” value in [11] is “block proliferation”.
For the compound `COc1cc(/C=C/C(=O)CC(=O)/C=C/c2ccc(O)c(OC)c2)ccc1O` [curcumin], the “growth / proliferation of human pancreatic cancer cells” value in series [11] is “inhibits”.
With `Nc1ccn([C@@H]2O[C@H](CO)[C@@H](O)C2(F)F)c(=O)n1` [gemcitabine, Gemcitabine], in [1] (gemcitabine alone, 3.8-38 μM (FIG. 8)), the “growth of MAC16 cells, agent alone” value is “inhibition of growth”.
`CC(C)C[C@H](N)C(=O)O` [leucine]: the “loss of body weight of mice bearing MAC-16 tumor” value in series [3] is recorded as “significantly suppress”.
In the case of `Oc1ccc(C=Cc2cc(O)cc(O)c2)cc1` [resveratrol], in series [3], the “tumor growth in mice bearing the MAC16 tumor” value was “inhibited”.
As for `CC(C)[C@H](N)C(=O)O` [valine], the “loss of body weight of mice bearing MAC-16 tumor” value in series [3] is on record as “significantly suppress”.
